Experimental data reported in ChEMBL document CHEMBL4261630.

Key:
Neuraminidase C = target: T1, Neuraminidase C (Streptococcus pneumoniae, UniProt A0A0B7LH44); assay: Inhibition of Streptococcus pneumoniae sialidase NanC using Neu5Acalpha2-3GalbetapNP as substrate after 30 mins by colorimetric assay
T1 sequence (A0A0B7LH44 whole entry): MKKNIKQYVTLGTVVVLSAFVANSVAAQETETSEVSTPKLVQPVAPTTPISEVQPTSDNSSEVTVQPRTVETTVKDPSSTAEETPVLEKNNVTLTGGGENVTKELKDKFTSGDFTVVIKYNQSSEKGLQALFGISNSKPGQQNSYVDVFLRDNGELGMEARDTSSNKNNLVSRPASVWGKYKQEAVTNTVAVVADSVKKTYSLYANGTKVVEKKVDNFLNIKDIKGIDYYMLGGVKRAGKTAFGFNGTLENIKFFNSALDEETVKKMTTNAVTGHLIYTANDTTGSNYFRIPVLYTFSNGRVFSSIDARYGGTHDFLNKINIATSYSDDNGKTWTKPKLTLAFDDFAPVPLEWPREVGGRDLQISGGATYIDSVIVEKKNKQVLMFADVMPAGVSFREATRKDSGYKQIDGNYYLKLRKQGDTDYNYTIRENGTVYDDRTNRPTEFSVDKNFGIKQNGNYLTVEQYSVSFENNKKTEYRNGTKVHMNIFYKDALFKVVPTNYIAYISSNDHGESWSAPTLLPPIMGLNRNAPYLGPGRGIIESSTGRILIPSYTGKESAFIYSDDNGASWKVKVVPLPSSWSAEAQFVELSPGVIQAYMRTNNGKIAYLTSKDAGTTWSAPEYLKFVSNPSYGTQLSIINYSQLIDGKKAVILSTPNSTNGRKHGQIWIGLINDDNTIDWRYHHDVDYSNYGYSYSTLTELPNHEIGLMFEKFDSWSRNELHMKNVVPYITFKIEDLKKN

[1] = Inhibition of Bifidobacterium longum subsp. infantis ATCC 15697 sialidase 2 (BiNanH2) using Neu5Acalpha2-3GalbetapNP as substrate after 30 mins by colorimetric assay
[2] = Inhibition of Pasteurella multocida sialyltransferase 1 using Neu5Acalpha2-3GalbetapNP as substrate after 30 mins by colorimetric assay
[3] = target: T2, Neuraminidase C (Streptococcus pneumoniae) (UniProt A0A0B7LH44); conditions: at 1 mM
T2 sequence (whole entry): T1 sequence (A0A0B7LH44 whole entry)

Sialidase A = Sialidase A (Streptococcus pneumoniae, UniProt P62575); assay: Inhibition of Streptococcus pneumoniae NanA using Neu5Acalpha2-3GalbetapNP as substrate after 30 mins by colorimetric assay
Sialidase B = target: T3, Sialidase B (Streptococcus pneumoniae serotype 4 (strain ATCC BAA-334 / TIGR4), UniProt Q54727); assay: Inhibition of Streptococcus pneumoniae NanB using Neu5Acalpha2-3GalbetapNP as substrate after 30 mins by colorimetric assay
T3 sequence (Q54727 whole entry): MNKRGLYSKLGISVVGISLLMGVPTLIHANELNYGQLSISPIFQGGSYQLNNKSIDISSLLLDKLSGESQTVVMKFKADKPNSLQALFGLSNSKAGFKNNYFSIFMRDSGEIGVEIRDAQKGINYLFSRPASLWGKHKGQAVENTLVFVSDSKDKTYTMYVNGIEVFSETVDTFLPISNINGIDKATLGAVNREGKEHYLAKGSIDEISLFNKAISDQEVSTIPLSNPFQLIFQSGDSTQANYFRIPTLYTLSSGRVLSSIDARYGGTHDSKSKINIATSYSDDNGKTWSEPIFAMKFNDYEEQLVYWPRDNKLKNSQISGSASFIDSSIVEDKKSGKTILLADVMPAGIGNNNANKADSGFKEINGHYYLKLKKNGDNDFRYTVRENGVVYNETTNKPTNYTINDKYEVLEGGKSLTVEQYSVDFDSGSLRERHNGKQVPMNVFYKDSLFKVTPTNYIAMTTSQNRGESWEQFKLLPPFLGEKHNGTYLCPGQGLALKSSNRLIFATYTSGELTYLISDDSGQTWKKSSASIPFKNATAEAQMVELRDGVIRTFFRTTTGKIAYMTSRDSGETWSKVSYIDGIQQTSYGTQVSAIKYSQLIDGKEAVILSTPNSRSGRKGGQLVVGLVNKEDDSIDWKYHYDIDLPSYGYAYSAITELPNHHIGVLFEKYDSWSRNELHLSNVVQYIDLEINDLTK

Sialidase = Sialidase (Vibrio cholerae serotype O1 (strain ATCC 39315 / El Tor Inaba N16961), UniProt P0C6E9); assay: Inhibition of Vibrio cholerae sialidase using Neu5Acalpha2-3GalbetapNP as substrate after 30 mins by colorimetric assay
[4] = target: Sialidase A (Streptococcus pneumoniae) (UniProt P62575); conditions: at 1 mM
[5] = target: T4, Sialidase B (Streptococcus pneumoniae serotype 4 (strain ATCC BAA-334 / TIGR4)) (UniProt Q54727); conditions: at 1 mM
T4 sequence (whole entry): T3 sequence (Q54727 whole entry)

[6] = target: Sialidase (Vibrio cholerae serotype O1 (strain ATCC 39315 / El Tor Inaba N16961)) (UniProt P0C6E9); conditions: at 1 mM
[7] = system: Paenarthrobacter ureafaciens; conditions: at 1 mM
[8] = target: T5, Sialidase (Clostridium perfringens) (UniProt P10481); conditions: at 1 mM
T5 sequence (whole entry): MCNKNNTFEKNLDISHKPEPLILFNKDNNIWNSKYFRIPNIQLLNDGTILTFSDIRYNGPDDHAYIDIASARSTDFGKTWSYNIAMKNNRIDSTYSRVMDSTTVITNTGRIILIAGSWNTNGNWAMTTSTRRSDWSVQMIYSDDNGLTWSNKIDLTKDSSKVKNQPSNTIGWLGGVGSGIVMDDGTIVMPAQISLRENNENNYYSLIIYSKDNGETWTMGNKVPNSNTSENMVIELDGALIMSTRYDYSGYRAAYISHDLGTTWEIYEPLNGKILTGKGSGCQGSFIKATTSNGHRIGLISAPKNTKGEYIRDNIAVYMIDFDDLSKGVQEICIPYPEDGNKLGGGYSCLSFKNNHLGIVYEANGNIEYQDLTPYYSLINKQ

[9] = system: Bifidobacterium longum subsp. infantis; conditions: ATCC 15697, at 1 mM
Pasteurella multocida [10] = conditions: at 1 mM
[11] = target: Sialidase A (Streptococcus pneumoniae) (UniProt P62575); conditions: at 0.1 mM
[12] = target: T4, Sialidase B (Streptococcus pneumoniae serotype 4 (strain ATCC BAA-334 / TIGR4)); conditions: at 0.1 mM
[13] = target: T2, Neuraminidase C (Streptococcus pneumoniae); conditions: at 0.1 mM
[14] = target: Sialidase (Vibrio cholerae serotype O1 (strain ATCC 39315 / El Tor Inaba N16961)) (UniProt P0C6E9); conditions: at 0.1 mM
[15] = system: Paenarthrobacter ureafaciens; conditions: at 0.1 mM
[16] = target: T5, Sialidase (Clostridium perfringens); conditions: at 0.1 mM
[17] = system: Bifidobacterium longum subsp. infantis; conditions: ATCC 15697, at 0.1 mM
Pasteurella multocida [18] = conditions: at 0.1 mM
[19] = Inhibition of Arthrobacter ureafaciens sialidase using Neu5Acalpha2-3GalbetapNP as substrate after 30 mins by colorimetric assay; set-up: species or system Paenarthrobacter ureafaciens

Chain of Sialidase (P0C6E9 whole entry, one chain of several): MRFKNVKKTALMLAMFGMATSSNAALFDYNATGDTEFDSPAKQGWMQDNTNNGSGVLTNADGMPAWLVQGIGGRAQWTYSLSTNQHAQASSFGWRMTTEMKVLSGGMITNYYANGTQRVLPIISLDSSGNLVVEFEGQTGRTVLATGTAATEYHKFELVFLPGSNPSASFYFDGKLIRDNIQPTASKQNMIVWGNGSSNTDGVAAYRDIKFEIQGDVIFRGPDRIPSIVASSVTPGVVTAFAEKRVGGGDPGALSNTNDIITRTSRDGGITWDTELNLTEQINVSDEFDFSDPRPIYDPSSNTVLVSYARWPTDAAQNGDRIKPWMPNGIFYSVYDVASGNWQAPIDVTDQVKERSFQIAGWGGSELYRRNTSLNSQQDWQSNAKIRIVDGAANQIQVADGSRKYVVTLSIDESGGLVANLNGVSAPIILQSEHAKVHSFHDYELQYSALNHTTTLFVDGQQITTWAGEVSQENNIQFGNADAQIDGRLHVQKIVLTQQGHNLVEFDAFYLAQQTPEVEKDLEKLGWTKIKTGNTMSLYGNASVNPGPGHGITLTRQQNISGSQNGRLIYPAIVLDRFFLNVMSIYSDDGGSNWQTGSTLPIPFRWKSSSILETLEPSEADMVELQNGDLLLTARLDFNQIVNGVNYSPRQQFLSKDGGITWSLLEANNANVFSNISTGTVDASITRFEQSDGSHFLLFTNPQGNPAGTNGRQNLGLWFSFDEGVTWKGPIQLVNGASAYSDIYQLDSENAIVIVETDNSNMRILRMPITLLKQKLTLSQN
Chain of Sialidase (Vibrio cholerae serotype O1 (strain ATCC 39315 / El Tor Inaba N16961)) (P0C6E9 whole entry, one chain of several): as above
Chain of Sialidase A (Streptococcus pneumoniae) (P62575 whole entry): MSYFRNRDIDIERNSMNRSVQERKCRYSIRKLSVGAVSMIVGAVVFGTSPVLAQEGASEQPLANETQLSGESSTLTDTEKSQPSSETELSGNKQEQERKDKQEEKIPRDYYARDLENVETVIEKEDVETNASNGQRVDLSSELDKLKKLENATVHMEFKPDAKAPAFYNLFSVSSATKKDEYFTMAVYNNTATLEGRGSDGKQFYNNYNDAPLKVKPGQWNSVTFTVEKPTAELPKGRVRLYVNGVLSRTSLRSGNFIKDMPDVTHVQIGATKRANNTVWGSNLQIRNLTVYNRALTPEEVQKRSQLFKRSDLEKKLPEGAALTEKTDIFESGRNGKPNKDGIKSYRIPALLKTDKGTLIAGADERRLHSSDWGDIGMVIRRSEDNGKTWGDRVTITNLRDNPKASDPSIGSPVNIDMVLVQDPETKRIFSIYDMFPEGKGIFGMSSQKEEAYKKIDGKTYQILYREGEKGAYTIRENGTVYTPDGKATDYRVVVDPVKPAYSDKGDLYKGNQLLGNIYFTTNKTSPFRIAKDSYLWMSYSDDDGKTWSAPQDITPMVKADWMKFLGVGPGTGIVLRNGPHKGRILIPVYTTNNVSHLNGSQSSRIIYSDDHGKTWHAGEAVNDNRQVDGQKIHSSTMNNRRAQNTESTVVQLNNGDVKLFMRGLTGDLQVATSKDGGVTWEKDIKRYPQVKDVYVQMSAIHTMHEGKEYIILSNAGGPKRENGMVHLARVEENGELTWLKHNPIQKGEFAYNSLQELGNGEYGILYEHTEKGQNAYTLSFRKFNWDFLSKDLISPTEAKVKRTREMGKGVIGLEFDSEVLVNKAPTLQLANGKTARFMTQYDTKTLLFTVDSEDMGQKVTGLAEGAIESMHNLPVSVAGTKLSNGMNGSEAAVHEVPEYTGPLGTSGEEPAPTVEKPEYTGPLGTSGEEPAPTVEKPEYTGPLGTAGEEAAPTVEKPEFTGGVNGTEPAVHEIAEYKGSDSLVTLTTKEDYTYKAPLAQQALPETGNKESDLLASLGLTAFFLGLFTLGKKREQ
Chain of Sialidase A (P62575 whole entry): as above

Structure (SMILES)	IC50 (Neuraminidase C) [µM]	IC50 [1] [µM]	IC50 [2] [µM]	inhibition [3] [%]	IC50 (Sialidase A) [µM]	IC50 (Sialidase B) [µM]	IC50 (Sialidase) [µM]	inhibition [4] [%]	inhibition [5] [%]	inhibition [6] [%]	inhibition [7] [%]	inhibition [8] [%]	inhibition (Pasteurella multocida [10]) [%]	inhibition [11] [%]	inhibition [12] [%]	inhibition [13] [%]	inhibition [14] [%]	inhibition [15] [%]	inhibition [16] [%]	inhibition (Pasteurella multocida [18]) [%]	also measured
CC(=O)N[C@H]1[C@H]([C@H](O)[C@H](O)Cn2cc(C[C@H](NC(=O)[C@@H](N)CCC(=O)O)C(=O)N[C@@H](CCCCN)C(=O)N[C@@H](CCC(=O)O)C(N)=O)nn2)OC(C(=O)O)=C[C@@H]1O	> 1000	> 1000	> 1000	9.8	–	–	–	–	–	–	–	–	–	–	–	–	–	–	–	–	–
CC(=O)N[C@H]1[C@H]([C@H](O)[C@H](O)Cn2cc(C[C@H](N)C(=O)O)nn2)OC(C(=O)O)=C[C@@H]1O	> 1000	> 1000	> 1000	47.8	100 to 1000	> 1000	13.5	84.4	35.5	93.2	85.6	69.7	9.1	42.9	8.8	15.3	82	42.1	17.6	2.8	inhibition [9]: 14.7%; inhibition [17]: 0%
CC(=O)N[C@H]1[C@H]([C@H](O)[C@H](O)CO)OC(C(=O)O)=C[C@@H]1O [NEU5AC2EN]	> 1000	–	> 1000	23.7	–	–	–	99.9	31.9	94.5	99	92.6	9.3	94.9	2.7	6.3	88.2	95.8	72.1	2.1	IC50 [19]: 8.1 µM
CC(=O)N[C@H]1[C@H]([C@H](O)[C@H](O)CN=[N+]=[N-])OC(C(=O)O)=C[C@@H]1O	> 1000	100 to 1000	> 1000	39.2	44.3	> 1000	20	98.8	35.2	95.6	99.5	89.3	14.9	78.6	6.6	13.4	86	99.2	57.1	1.7	IC50 [19]: 0.72 µM; inhibition [9]: 86.7%; inhibition [17]: 49.4%
CC(=O)N[C@H]1[C@H]([C@H](O)[C@H](O)Cn2cc(C[C@H](N)C(=O)N[C@H](CCC(=O)O)C(N)=O)nn2)OC(C(=O)O)=C[C@@H]1O	> 1000	–	> 1000	29.7	65.6	> 1000	10.9	94.7	39	93.5	96.2	84.6	6	61.9	12.6	13.5	85.8	95.7	48.9	0.1	IC50 [19]: 1.87 µM; inhibition [9]: 76.4%; inhibition [17]: 3.3%
